From patent US9145444B2, “Compounds and methods associated with differential methylation of human papilloma virus genomes in epithelial cells” (Ruprecht-Karls-Universität Heidelberg, priority 2007, dated 2015)

Experiments:
[1] = phase I and II trials, systemic therapy; cited from earlier work
normal human firoblasts = conditions: normal human fibroblasts; cited from earlier work
early p97 HPV16 promoter = assay: luciferase assay of p97 promoter activity in keratinocytes transfected with LCR16_Luc; format: cell-based, human
Method: The impact of treatment with epigenetic inhibitors (demethylation agents) on the activity of the p97 promoter is assessed using luciferase assay. Normal human keratinocytes transfected with the reporter plasmid LCR16_Luc, which contains the complete LCR fragment of the HPV-16 cloned in front of the luciferase gene were grown to about 50-60% confluence. Cells were treated with 2 μM and 4 μM 5-azacytidin for 24 and 72 hs.

Row | SMILES | dose-limiting toxicity [1] | most commonly reported non-hematologic adverse effect [1] | basal level and TGFβ-induced collagen biosynthesis (normal human firoblasts) | p97 promoter activity reduced to (early p97 HPV16 promoter; 2 μM, undifferentiated or differentiated cells, FIG. 9) | p97 promoter activity (early p97 HPV16 promoter; 4 μM, undifferentiated and differentiated cells, FIG. 9) | activity of the early p97 promoter (early p97 HPV16 promoter; normal human keratinocytes, LCR16_Luc reporter, 2 μM and 4 μM for 24 and 72 hs)
1 | Nc1ncn([C@H]2C[C@H](O)[C@@H](CO)O2)c(=O)n1 [decitabine, 5-Aza-20-deoxycytidine] | myelosuppression | nausea and vomiting | – | – | – | –
2 | Nc1ncn([C@@H]2O[C@H](CO)[C@@H](O)[C@H]2O)c(=O)n1 [5-azacytidine, 5-Azacytidine] | myelosuppression | nausea and vomiting | inhibits | 40-60% | significantly reduced to the basal level | decreased the activity of the early p97 promoter in a dose dependent manner
